# Test results from BindingDB's records for doi:10.1124/jpet.103.058636 (National Institutes of Health, 2004).
# Biological target: Sodium-dependent serotonin transporter (Mus musculus, UniProt Q60857)
# Sequence (Q60857 whole entry): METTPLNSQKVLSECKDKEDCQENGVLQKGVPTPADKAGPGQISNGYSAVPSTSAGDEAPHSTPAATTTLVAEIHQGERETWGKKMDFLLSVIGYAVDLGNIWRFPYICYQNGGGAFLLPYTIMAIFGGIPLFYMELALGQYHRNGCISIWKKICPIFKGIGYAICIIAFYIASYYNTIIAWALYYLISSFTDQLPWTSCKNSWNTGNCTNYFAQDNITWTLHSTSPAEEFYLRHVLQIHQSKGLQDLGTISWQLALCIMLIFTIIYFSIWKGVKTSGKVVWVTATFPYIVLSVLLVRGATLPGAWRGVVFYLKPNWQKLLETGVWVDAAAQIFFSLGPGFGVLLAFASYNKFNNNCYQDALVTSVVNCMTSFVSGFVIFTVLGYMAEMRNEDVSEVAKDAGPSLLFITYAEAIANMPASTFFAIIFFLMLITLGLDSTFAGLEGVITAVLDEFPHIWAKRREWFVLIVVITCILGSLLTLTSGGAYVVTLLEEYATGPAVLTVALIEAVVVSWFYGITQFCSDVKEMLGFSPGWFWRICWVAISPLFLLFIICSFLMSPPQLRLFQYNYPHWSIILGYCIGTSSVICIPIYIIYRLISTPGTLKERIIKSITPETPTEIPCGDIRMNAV
smiles,measurement,value
CCNC(C)Cc1cccc(C(F)(F)F)c1 (stereo unspecified) [NSC_3337],Ki,7.05 µM
